Laboratory results: patent publication US20220354825A1, “PHARMACEUTICAL COMPOSITION FOR PREVENTION OR TREATMENT OF INFLAMMATORY DISEASES COMPRISING NAPHTHOQUINONE DERIVATIVE” (LMITO THERAPEUTICS INC., priority 2019, published 2022)

Legend:
NQO1 = NQO1 (Homo sapiens, UniProt P15559); experiment: In vitro NQO1 enzyme activity assay (cytochrome C reduction); type: biochemical; conditions: NQO1 2 ng, Compound 0.2 μM
Description: In order to evaluate the enzymatic activities of compounds on NQO1, the experiments were performed as follows:
A compound to measure NQO1 enzyme activity was dissolved in DMSO to prepare a 10 mM stock solution, which was then diluted with DMSO to prepare a working solution at a concentration of 250 μM. For an enzyme reaction solution, 50 μL of 1.54 mM cytochrome C solution was added to 900 μL of 50 mM Tris-HCl (pH 7.5) solution containing 0.14% BSA, and then the prepared working solution at 250 μM was added. After adding 20 μL of 100 ng/ml NQO1 protein, […] solution was added so as to adjust the total volume to 1 mL, and then the change of absorbance was measured at 550 nm for 10 minutes. The change of absorbance was measured at 550 nm for 10 minutes using 1 mL cuvette. The reaction rate was observed through the increase in absorbance as cytochrome C was reduced at 550 nm for 10 minutes, to obtain an absorbance value, and the activity for NQO1 was measured as the reduced amount of cytochrome C (nmol reduced cytochrome C/min/μg NQO1 protein).
Absorption coefficient of Cytochrome C: 21.1 (μmol/mL)-1 cm^−1
Equipment=Cary 100 UV-Vis Spectrophotometer

[1] = tested on: primary bone marrow-derived macrophages (BMDMs); experiment: NAD+ measurement in macrophages after LPS/ATP; type: cell-based, C57BL/6 mouse; conditions: LPS/ATP + 1, 5, 10 μM compound
Description: (§1) The primary bone marrow-derived macrophages (BMDMs) isolated from C57BL/6 mouse were incubated in DMEM medium involving macrophage colony-stimulating factor (M-CSF; R&D Systems, 416-ML) during 3 to 5 days. NAD^+ production and NAD^+/NADH ratio were measured in isolated BMDMs through using NAD/NADH Assay Kit(ab65348) supplied by Abcam company. All assays were performed according to the manufacturer's product manual.
FIGS. 1 to 5 show NAD^+ changes in the macrophage when treated with compounds 6, 16, 17, 22 and 27 respectively (in order from left in the figure: Untreatment, LPS/ATP, LPS/ATP+1 μM compound, LPS/ATP+5 μM compound, and LPS/ATP+10 μM compound).

[2] = tested on: primary bone marrow-derived macrophages (BMDMs); experiment: NAD+/NADH measurement in macrophages after LPS/ATP; type: cell-based, C57BL/6 mouse; conditions: LPS/ATP + 1, 5, 10 μM compound
Description: as §1, with “ratio was” for “ratio were”
FIGS. 6 to 10 show NAD^+/NADH ratio changes in the macrophage when treated with compounds 6, 16, 17, and 27 respectively (in order from left in the figure: Untreatment, LPS/ATP, LPS/ATP+1 μM compound, LPS/ATP+5 μM compound, and LPS/ATP+10 μM).

[3] = tested on: primary bone marrow-derived macrophages (BMDMs); experiment: Mitochondrial reactive oxygen species measurement (MitoSox, FACS); type: cell-based, C57BL/6 mouse; conditions: LPS/ATP + 1, 5, 10 μM compound
Description: The primary bone marrow-derived macrophages (BMDMs) isolated from C57BL/6 mouse were incubated in DMEM medium involving macrophage colony-stimulating factor (M-CSF; R&D Systems, 416-ML) during 3 to 5 days. Isolated BMDMs were stained by 1 μM MitoSox (Molecular Probes M36008) for 15 min. After washing the cells into PBS and collecting the cells, mitochondrial reactive oxygen species was measured by FACS.
FIGS. 11 and 12 show mitochondrial reactive oxygen species changes in the macrophage when treated with compounds 6 and 27, respectively (in order from left in the figure: Untreatment, LPS/ATP, LPS/ATP+1 μM compound, LPS/ATP+5 μM compound, and LPS/ATP+10 μM compound).

[4] = tested on: primary bone marrow-derived macrophages (BMDMs); experiment: ATP measurement in LPS-activated macrophages; type: cell-based, C57BL/6 mouse; conditions: LPS + 1, 5, 10 μM compound
Description: The primary bone marrow-derived macrophages (BMDMs) isolated from C57BL/6 mouse were incubated in DMEM medium involving macrophage colony-stimulating factor (M-CSF; R&D Systems, 416-ML) during 3 to 5 days. ATP content in the cell was measured through using ATP colorimetric/fluorometric kit after activation of macrophages by treatment of 100 ng/mL LPS in DMEM medium including […]. All assays were performed according to the manufacturer's product manual.
FIGS. 13 to 17 show the measurement of ATP amounts in the macrophage when treated with Compounds 6, 16, 17, 22 and 27 respectively (in order from left in the figure: Untreatment, LPS/ATP, LPS/ATP+1 μM compound, LPS/ATP+5 μM compound, and LPS/ATP+10 μM compound).

[5] = tested on: primary bone marrow-derived macrophages (BMDMs); experiment: OCR (oxygen consumption rate) measurement, Seahorse XF24; type: cell-based, C57BL/6 mouse; conditions: macrophages after treatment of LPS and ATP
Description: The primary bone marrow-derived macrophages (BMDMs) isolated from C57BL/6 mouse were incubated in DMEM medium involving macrophage colony-stimulating factor (M-CSF; R&D Systems, 416-ML) during 3 to 5 days. OCR was measured using Seahorse XF24 Extracellular Flux Analyzer in isolated bone marrow-derived macrophages.

[6] = tested on: DSS-induced acute colitis mouse model; experiment: Efficacy in ulcerative colitis mouse model (DSS-induced acute colitis); type: in vivo, C57BL/6 female mouse; conditions: 5% DSS for 6 days
Description: DSS-induced acute colitis mouse model was prepared using 6-week-old C57BL/6 female mouse in the following method from Opal S M et al., Jama., 309(11):1154-1162(2013) and Hotchkiss R S et al., Journal of immunology., 176(9):5471-5477(2006).
The clinical score in colitis were measured daily for body weight, rectal bleeding, total bleeding loss, and fecal concentration during colitis induction.
For immunohistochemistry of tissue section, mouse spleen, lung and colon were fixed using 10% formalin and embedded in paraffin. Paraffin sections were cut to a thickness of 4 μm, and H&E(hematoxylin and eosin) staining was performed. The histopathological score was measured in accordance with the criteria described in Osuchowski M F, et al., Journal of Immunology, 177(3):1967-74(2006); and Liu W, et al., Cell Research, 25(6): 691-706(2015).
The sandwich ELISAs and MPO assay were performed according to conventional methods in this field. TNF-α, IL-6, IL-1β, IL-18 ELISA(sandwich ELISAs) were performed using BD OptEIA ELISA Kit and MPO assay was performed using MPO Activity assay kit(ab105136) of Abcam company.
The data obtained from independent experiment (means±SD) was analyzed by using two-tailed Student's t-test. The differences were considered significant in p<0.05. For survival comparison, the results were graphically described and analyzed according to kaplan-Meier survival analysis, that is, the product-limit method, using log-rank(Mantel-Cox) tests (Prism, version 5.0, GraphPad Software).

[7] = colon tissue homogenate, treated during 20 days
[8] = treated during 10 days, vs non-treated mouse

Chain of NQO1 (P15559 whole entry, species assumed): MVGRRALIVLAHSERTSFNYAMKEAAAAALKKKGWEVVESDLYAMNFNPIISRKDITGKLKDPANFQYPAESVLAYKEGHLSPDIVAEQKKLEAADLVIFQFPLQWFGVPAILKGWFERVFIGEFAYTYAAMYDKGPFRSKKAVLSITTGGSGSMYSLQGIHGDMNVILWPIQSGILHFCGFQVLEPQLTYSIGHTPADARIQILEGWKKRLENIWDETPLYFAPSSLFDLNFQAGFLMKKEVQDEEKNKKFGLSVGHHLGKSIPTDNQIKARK

CC(C)c1nc2c([nH]1)C(=O)C(=O)c1ccccc1-2 [Compound 27]
NQO1 Activity (NQO1): 2269 nmol of reduced Cytochrome C/min/μg NQO1 Protein | NAD+ production [1]: increased in dose-dependent manner | NAD+/NADH ratio [2]: increased in dose-dependent manner | mitochondrial reactive oxygen species amounts [3]: decreased in dose-dependent manner | ATP amounts [4]: increased in dose-dependent manner | overall mitochondrial OCR [5]: increased | MPO activity [6, 7]: decreased | cytokine expressions (TNF-α, IL-6, IL-1β and IL-18, ELISA) [6, 7]: decreased | expressions of sirtuin 1 and sirtuin 7 [6, 7]: significantly increased | histological finding of colon tissue (immunohistochemistry, histological score, H&E) ([6]; treated during 7 days, vs non-treated colon tissue): significantly improved than non-treated colon tissue | colitis clinic scores (body weight, stool consistency, bleeding combined) [6, 8]: significantly ameliorated compared with non-treated mouse | degree of body weight loss [6, 8]: significantly slower than non-treated mouse | survival rates ([6]; treated during 20 days, vs non-treated mouse): higher than non-treated mouse
